Measurements published in patent publication US20260374766A1, “METHODS FOR TREATING CANCER” (Antares Therapeutics, Inc., priority 2022, published 2026).
Where two headings read alike, the source gives them in different places.

How the values were obtained:
[1] = molecular target: T1, p53 Y220C mutant protein (amino acid residues 94-293) (Homo sapiens, UniProt P04637, Y220C); test: Surface Plasmon Resonance (SPR) assay, Kd_kinetic; format: binding; conditions: read-out: SPR P53 Y220C KD kinetic
T1 construct: p53 Y220C mutant protein (amino acid residues 94-293)
Summary of the method: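 Binding measured by SPR on a Biacore 8K in running buffer of 50 mM Tris pH 7.5, 100 mM NaCl, 1 mM DTT, 0.01% Brij35, 0.05% Tween-20, 1% DMSO.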

[2] = molecular target: T1, p53 Y220C mutant protein (amino acid residues 94-293); test: Thermal Shift Assay (TSA), dTM; format: binding; conditions: thermal shift; for ΔTm at 10 µM: 10 uM compound, read-out: TSA P53 Y220C dTM (10 uM); for ΔTm at 100 µM: 100 uM compound, read-out: TSA P53 Y220C dTM (100 uM)
Summary of the method: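 First, the mutant DNA-binding domain (5 μM) was preincubated 3 hours at 20 °C with compound at 10 μM or 100 μM. Next, the sample was heated from 30 °C to 50 °C at 0.03 °C/second in the presence of Sypro Orange. Finally, TM was obtained from a two-state Boltzmann fit.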

[3] = molecular target: p53 Y220C (Homo sapiens, UniProt P04637, Y220C); test: Luciferase Reporter Assay (Luc), p53 response element, NClH1299 cells with inducible p53 Y220C; format: cell-based; conditions: luciferase reporter, NClH1299 inducible p53 Y220C, 6 hour; for Emax: 10 uM tool compound as positive control; for AC50: read-out: Luc P53 Y220C AC50
Summary of the method: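 Luciferase activity is measured directly after One-Glo addition and a 5-minute room-temperature shake. Before that, cells plated at 5,000 per well receive doxycycline at 0.5 ug/mL for 24 hours, followed by compound for 6 hours.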

[4] = test system: NUGC3 p53 Y220C; test: Cell Proliferation Assay (CellTiter-Glo, CTG), NUGC3 p53 Y220C; format: cell-based; conditions: Homo sapiens, NUGC-3, 120 h, CellTiter-Glo, NUGC3 p53 Y220C, 5 days
Summary of the method: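 NClH1299 lines stably transduced with Tet-inducible p53 Y220C or R273H, plus NUGC3, were treated with compound for 5 days at 250-500 cells/well. IC50 derived from CellTiter-Glo luminescent signal after 10 min room-temperature incubation.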

[5] = test system: H1299 p53 Y220C; test: Cell Proliferation Assay (CellTiter-Glo, CTG), H1299 p53 Y220C (NClH1299-inducible p53 Y220C); format: cell-based; conditions: Homo sapiens, NCI-H1299, 120 h, CellTiter-Glo, H1299 p53 Y220C, 5 days
Summary of the method: (§1)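 Cells seeded at 250-500 per well and exposed to compound for 5 days. Viability read by CellTiter-Glo luminescence after 10 min at room temperature; IC50 calculated. H1299 lines carry Tet-One inducible p53 mutant constructs introduced by lentiviral transduction.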

[6] = test system: H1299 p53 R273H; test: Cell Proliferation Assay (CellTiter-Glo, CTG), H1299 p53 R273H (NClH1299-inducible p53 R273H); format: cell-based; conditions: Homo sapiens, NCI-H1299, 120 h, CellTiter-Glo, H1299 p53 R273H, 5 days
Summary of the method: as §1

Kd ([1]; SPR, kinetic KD, p53 Y220C) [nM]	ΔTm at 10 µM [2] [°C]	ΔTm at 100 µM [2] [°C]	Emax [3] [%]	AC50 [3] [nM]	IC50 [5] [nM]	IC50 [6] [nM]	Kd [1] [nM]	SMILES	IC50 [4] [nM]
< 10	≥ 10	≥ 10	70 to 80	< 750	< 750	5000 to 8000		CNC(=O)c1ccc(NCC#Cc2nc3c(N[C@H]4C[C@@H]5CC[C@H]([C@H]4F)N5C)cccn3c2SC(F)(F)F)c(OC)c1 [Example 130]	< 750
< 10	≥ 10	≥ 10	70 to 80	< 750	< 750	5000 to 8000		COc1cc(S(C)(=O)=O)ccc1NCC#Cc1nc2c(N[C@@H]3C[C@H]4CC[C@H](N4)[C@@H]3F)cccn2c1SC(F)(F)F [Example 131]	< 750
< 10	≥ 10		> 90	< 750	< 750	8000 to 10000		CNC(=O)c1ccc(NCC#Cc2cc3c(N[C@@H]4CCN(C)C[C@@H]4F)cccn3c2SC(F)F)c(OC)c1 [Example 135, 4-[(3-{3-[(difluoromethyl)sulfanyl]-8-{[(3S,4R)-3-fluoro-1-methylpiperidin-4-yl]amino}indolizin-2-yl}prop-2-yn-1-yl)amino]-3-methoxy-N-methylbenzamide]	< 750
< 10	5 to 10	≥ 10	70 to 80	1500 to 3000	> 3000	8000 to 10000		CNC(=O)c1cnc(NCC#Cc2nc3c(N[C@@H]4CCN(C)C[C@@H]4F)cccn3c2SC(F)(F)F)c(OC)c1 [Example 136]	> 3000
< 10	≥ 10	≥ 10	80 to 90	< 750	< 750	8000 to 10000		COc1ccc(C(N)=O)cc1NCC#Cc1nc2c(N[C@@H]3CCN(C)C[C@@H]3F)cccn2c1SC(F)(F)F [Example 138]	< 750
< 10	≥ 10		> 90	< 750	< 750	5000 to 8000		CNC(=O)c1ccc(NCC#Cc2cn3c(N[C@@H]4CCN(C)C[C@@H]4F)cccc3c2SC(F)(F)F)c(OC)c1 [Example 139, 4-{[3-(5-{[(3S,4R)-3-fluoro-1-methylpiperidin-4-yl]amino}-1-[(trifluoromethyl)sulfanyl]indolizin-2-yl)prop-2-yn-1-yl]amino}-3-methoxy-N-methylbenzamide]	< 750
< 10	≥ 10		80 to 90	< 750	< 750	< 5000		COc1ncc(C(N)=O)cc1NCC#Cc1nc2c(N[C@@H]3CCN(C)C[C@@H]3F)cccn2c1SC(F)(F)F [Example 140]	< 750
< 10	≥ 10	≥ 10	80 to 90	< 750	< 750	≥ 10000		CNC(=O)c1cnc(OC)c(NCC#Cc2nc3c(N[C@@H]4CCN(C)C[C@@H]4F)cccn3c2SC(F)(F)F)c1 [Example 141]	< 750
< 10	≥ 10	≥ 10	< 70	750 to 1500	750 to 1500	≥ 10000		CNC(=O)c1cncc(NCC#Cc2nc3c(N[C@@H]4CCN(C)C[C@@H]4F)cccn3c2SC(F)(F)F)c1 [Example 142]	< 750
	5 to 10	≥ 10	80 to 90	750 to 1500	1500 to 3000	≥ 10000	< 10	COc1ccc(C(=O)N2CCC2)cc1NCC#Cc1nc2c(N[C@@H]3CCN(C)C[C@@H]3F)cccn2c1SC(F)(F)F [Example 144]	750 to 1500
< 10	≥ 10	≥ 10	80 to 90	< 750	< 750	≥ 10000		COc1ccc(C(=O)NC(C)C)cc1NCC#Cc1nc2c(N[C@@H]3CCN(C)C[C@@H]3F)cccn2c1SC(F)(F)F [Example 145]	< 750
